# Reference: article PMC6891756, “Synthesis and Biological Evaluation of Novel Aminochalcones as Potential Anticancer and Antimicrobial Agents” (Molecules, 2019)
# Where two headings read alike, the source gives them in different places.
# What was measured:
# Fusarium linii KB-F1 [1] = assay: MIC evaluation (broth method), F. linii; format: cell-based
# Protocol: (§1) Sterile 96-well microtiter plates (Sarstedt) with nutrient broth (for bacteria) (Biocorp) or YM medium (for yeast and filamentous fungi) were inoculated with a standardized cell suspension of bacteria and yeast or fungal spores of 10^5 cell·mL^−1, and supplemented with aminochalcones dissolved in DMSO. […] All analysis were conducted in triplicates. The plates were incubated at 30 °C (bacteria and yeast) or 25 °C (filamentous fungi) for 48–72 h. The results were measured with the Spark® Multimode Microplate Reader (Tecan, Männedorf, Switzerland) at a 560 nm wavelength. The minimal inhibitory concentration was defined as the lowest concentration of a tested compound that completely restricted the growth of the microorganism. In order to verify the obtained results, microbial cultures subjected to each concentration of aminochalcone were inoculated onto nutrient agar or YM plates and incubated as described above. The lack of growth on agar plate was a confirmation of the MIC of the tested compound. The resulting MIC values were compared with the reference substances: oxytetracycline (against bacteria), cycloheximide (against yeast) and nystatin (against fungi) (Sigma Aldrich).
# [2] = tested on: Aspergillus niger DSM1957; assay: MIC evaluation (broth method), A. niger; format: cell-based; conditions: for MIC: Aspergillus niger, DSM1957, 48–72 h, read-out: Minimal inhibitory concentration A. niger
# Protocol: as §1
# [3] = tested on: Aspergillus niger DSM1957; assay: Microbial growth curve screening, A. niger; format: cell-based; conditions: 0.1% (w/v); for ∆OD A. niger: OD at 560 nm, control 2.14; for Lag-phase A. niger: control 11.0 h
# Protocol: (§2) The antimicrobial screening tests were performed on two strains of bacteria: E. coli ATCC10536 and S. aureus DSM799, strain of yeast C. albicans DSM1386 and three strains of fungi: F. linii KB-F1, A. alternata CBS1526 and A. niger DSM1957. All microorganisms were obtained from the collection of the Faculty of Biotechnology and Food Microbiology, Wrocław University of Environmental and Life Sciences. The bacteria were cultured in nutrient broth (Biocorp, Warsaw, Poland), yeast and fungi in YM medium (3 g yeast extract, 3 g malt extract, 5 g bacteriological peptone and 10 g of glucose dissolved in 1 L of distilled water). The tests were carried out in 100-well microtiter plates. To each well 280 μL of culture medium, 10 μL of microorganism suspension and 10 μL of aminochalcone (1–18) dissolved in dimethyl sulfoxide (3% (w/v)) were added. The final concentration of the tested compound (1–18) was 0.1% (w/v). Each experiment were performed in 3 replications. The optical density of the cell suspension was measured on Bioscreen C (Automated Growth Curve Analysis System Lab System, Vantaa, Finland) at 560 nm automatically, at regular intervals of 30 min for 2–3 days. Cell cultures were maintained at 28 °C on a continuous shaker. To prepare the growth curves for each strain, the mean values of the absorbance in a function of time were used. The resulting antimicrobial activity was expressed as the increase of optical density (ΔOD) and was compared to that of the control cultures in the medium supplemented with dimethyl sulfoxide and also with reference substances: oxytetracycline (against bacteria), cycloheximide (against yeast) and nystatin (against fungi) (Sigma Aldrich).
# Fusarium linii KB-F1 [4] = assay: Microbial growth curve screening, F. linii; format: cell-based; conditions: 0.1% (w/v); for ∆OD F. linii: OD at 560 nm, control 1.95; for Lag-phase F. linii: control 13.5 h
# Protocol: as §2
# [5] = tested on: Alternaria alternata CBS1526; assay: MIC evaluation (broth method), A. alternata; format: cell-based; conditions: for MIC: Alternaria alternata, CBS1526, 48–72 h, read-out: Minimal inhibitory concentration A. alternata
# Protocol: as §1
# [6] = tested on: Alternaria alternata CBS1526; assay: Microbial growth curve screening, A. alternata; format: cell-based; conditions: 0.1% (w/v); for ∆OD A. alternata: OD at 560 nm, control 1.86
# Protocol: as §2
# HT-29 cell line [7] = tested on: HT-29 cell line; design: method as in doi:10.1007/s00044-011-9549-9; conditions: read-out: IC50 HT-29 (literature); cited from earlier work
# HT-29 = assay: SRB antiproliferative assay, HT-29; format: cell-based, human; conditions: for IC50: Homo sapiens, HT-29, SRB, 48 h, 1–100 µg·mL^−1, ND = not detected in the tested concentration range
# Protocol: (§3) Anticancer activity was evaluated using the sulforhodamine B assay (SRB) on four different human colon cancer cell lines: HT-29, LS180, LoVo and LoVo/DX and green monkey kidney fibroblasts COS7 (ATCC, Manassas, VA, USA). Cell lines HT-29 and COS7 were cultured in α-MEM medium (IIET PAS, Wrocław, Poland), LS180 in OptiMEM medium (IIET PAS), LoVo and LoVo/DX in mixture of α-MEM and OptiMEM medium (1:1 (v:v)). Each culture medium was supplemented with 10% fetal bovine serum, 2 mM glutamine, 100 μg·mL^−1 penicillin, 100 μg·mL^−1 streptomycin and 0.25 μg·mL^−1 amphotericin (all supplements purchased from Gibco (Paisley, UK). Cells were incubated at 37 °C, 5% CO2 in HeraCELL 150i incubator (Thermo Fisher Scientific, Waltham, MA, USA).
# (§4) For the SRB assay, cells were seeded onto 96-well plates (Sarstedt, Nümbrecht, Germany) at a density of 5·10^3/well and cultured overnight as described above. Then, the growth medium was gently removed and replaced with fresh medium, supplemented with aminochalcone derivatives in the concentration ranging from 1 µg·mL^−1 to 100 µg·mL^−1. All stock solutions were prepared in DMSO at a concentration of 10 mg·mL^−1. Cells were incubated for 48 h and then the SRB assay was performed as described previously. Each experiment was performed in quadruplicate. The final results were reported as the IC50 values calculated for three independent experiments. Cisplatin (Acros Organics, Waltham, MA, USA) and doxorubicin (Fisher BioReagents, Waltham, MA, USA) were used as positive controls of the test.
# [8] = tested on: HT-29, LS180, LoVo and LoVo/DX; assay: SRB assay, all tested human colon cancer cell lines (pooled statement); format: cell-based; conditions: range over HT-29, LS180, LoVo, read-out: IC50 values against all tested human colon cancer cell lines
# Protocol: as §3
# as §4, with “Cisplatin (Acros Organics, Waltham, MA, USA) and doxorubicin (Fisher BioReagents, Waltham, MA, USA) were used as positive controls of the test.” left out
# [9] = tested on: Staphylococcus aureus DSM799; assay: MIC evaluation (broth method), S. aureus; format: cell-based; conditions: 48–72 h, read-out: Minimal inhibitory concentration S. aureus
# Protocol: as §1
# Candida albicans DSM1386 [10] = assay: MIC evaluation (broth method), C. albicans; format: cell-based; conditions: DSM1386, broth method, 48–72 h, read-out: Minimal inhibitory concentration C. albicans
# Protocol: as §1
# [11] = tested on: Staphylococcus aureus DSM799; assay: Microbial growth curve screening, S. aureus; format: cell-based; conditions: 0.1% (w/v), OD at 560 nm, control 1.67
# Protocol: as §2
# [12] = SRB assay, normal fibroblasts COS7; format: cell-based, green monkey; conditions: green monkey, COS7 kidney fibroblasts (normal cell line), ND = not detected in the tested concentration range
# Protocol: as §3, §4
# LoVo/DX = assay: SRB antiproliferative assay, LoVo/DX; format: cell-based, human; conditions: Homo sapiens, LoVo/DX, 48 h, 1–100 µg·mL^−1, ND = not detected in the tested concentration range
# Protocol: as §3, §4
# LoVo = assay: SRB antiproliferative assay, LoVo; format: cell-based, human; conditions: Homo sapiens, LoVo, 48 h, 1–100 µg·mL^−1, ND = not detected in the tested concentration range
# Protocol: as §3, §4
# [13] = tested on: Escherichia coli ATCC10536; assay: MIC evaluation (broth method), E. coli; format: cell-based; conditions: 48–72 h, read-out: Minimal inhibitory concentration E. coli
# Protocol: as §1
# [14] = tested on: Escherichia coli ATCC10536; assay: Microbial growth curve screening, E. coli; format: cell-based; conditions: 0.1% (w/v); for ∆OD E. coli: OD at 560 nm, control 1.61
# Protocol: as §2
# LS180 = assay: SRB antiproliferative assay, LS180; format: cell-based, human; conditions: Homo sapiens, LS180, 48 h, 1–100 µg·mL^−1, ND = not detected in the tested concentration range
# Protocol: as §3, §4
# HT-29 cell line [15] = tested on: HT-29 cell line; design: method as in PMID 24675137; conditions: cited from earlier work
# Candida albicans DSM1386 [16] = assay: Microbial growth curve screening, C. albicans; format: cell-based; conditions: 0.1% (w/v)
# Protocol: as §2
# Trichophyton rubrum = tested on: Trichophyton rubrum; design: method as in doi:10.1007/s10600-018-2281-7; conditions: cited from earlier work
smiles,measurement,setting,value
"C[C@@H]1[C@H](O)[C@@H](C)/C=C/C=C/CC/C=C/C=C/C=C/C=C/C(O[C@H]2O[C@H](C)[C@@H](O)[C@H](N)[C@@H]2O)CC2O[C@](O)(CC(O)C(O)CCC(O)CC(O)CC(O)CC(=O)O[C@H]1C)CC(O)C2C(=O)O (some centres unmarked) [Nystatin, reference compound]",Minimal inhibitory concentration F. linii,Fusarium linii KB-F1 [1]; 48–72 h,500 µg/mL
same,Minimal inhibitory concentration A. niger,[2]; 48–72 h,250 µg/mL
same,∆OD A. niger,[3],0.74
same,Lag-phase A. niger,[3],4.5 h
same,∆OD F. linii,Fusarium linii KB-F1 [4],0.13
same,Lag-phase F. linii,Fusarium linii KB-F1 [4],10.0 h
same,Minimal inhibitory concentration A. alternata,[5]; 48–72 h,1000 µg/mL
same,∆OD A. alternata,[6],0.0
Nc1ccc(C(=O)/C=C/c2ccccc2Cl)cc1 [4′-amino-2-chlorochalcone],IC50,HT-29 cell line [7],26.2 µM
"Nc1cccc(C(=O)/C=C/c2ccccc2)c1 [Compound 2, 3′-Aminochalcone]",IC50,HT-29,1.6 ± 0.01 µg/mL
same,IC50,[8],1.6 to 2.13 µg/mL
same,MIC,[9],0.25 µg/mL
same,MIC,Candida albicans DSM1386 [10],0.5 µg/mL
same,∆OD S. aureus,[11],0.0
same,∆OD A. niger,[3],0.34
same,Lag-phase A. niger,[3],1.5 h
same,IC50 at 48 h,[12],3.25 ± 0.66 µg/mL
same,melting point,,121 to 124 °C
same,IC50,LoVo/DX,1.97 ± 0.3 µg/mL
same,∆OD F. linii,Fusarium linii KB-F1 [4],0.23
same,Lag-phase F. linii,Fusarium linii KB-F1 [4],30.0 h
same,IC50,LoVo,1.88 ± 0.12 µg/mL
same,MIC,[13],0.25 µg/mL
same,∆OD E. coli,[14],0.0
same,MIC,[5],0.5 µg/mL
same,∆OD A. alternata,[6],0.0
same,IC50,LS180,2.13 ± 0.18 µg/mL
"Nc1cccc(C(=O)/C=C/c2ccc([N+](=O)[O-])cc2)c1 [Compound 11, 3′-Amino-4-nitrochalcone]",IC50,HT-29,2.77 ± 0.49 µg/mL
same,MIC,"Fusarium linii KB-F1 [1]; Fusarium, KBF1, 48–72 h, read-out: Minimal inhibitory concentration F. linii",0.5 µg/mL
same,MIC,[9],0.25 µg/mL
same,MIC,Candida albicans DSM1386 [10],0.25 µg/mL
same,∆OD S. aureus,[11],0.0
same,MIC,[2],1 µg/mL
same,∆OD A. niger,[3],0.83
same,Lag-phase A. niger,[3],39.5 h
same,IC50 at 48 h,[12],2.3 ± 0.45 µg/mL
same,melting point,,166 to 168 °C
same,IC50,LoVo/DX,1.36 ± 0.06 µg/mL
same,∆OD F. linii,Fusarium linii KB-F1 [4],0.0
same,IC50,LoVo,1.34 ± 0.1 µg/mL
same,MIC,[13],1000 µg/mL
same,∆OD E. coli,[14],0.0
same,∆OD A. alternata,[6],0.55
same,Lag-phase A. alternata,[6]; control 16.5 h,42.0 h
same,IC50,LS180,2.89 ± 0.53 µg/mL
"Nc1ccccc1C(=O)/C=C/c1ccccc1 [Compound 1, 2′-Aminochalcone]",IC50,HT-29,1.43 ± 0.16 µg/mL
same,"times higher activity than cisplatin, HT-29",HT-29; ratio of IC50 values vs cisplatin (19),~12 times
same,MIC,[9],0.25 µg/mL
same,IC50 HT-29 (literature),HT-29 cell line [15],0.98 µg/mL
same,IC50,HT-29 cell line [15]; read-out: IC50 HT-29 (literature),4.39 µM
same,∆OD S. aureus,[11],0.0
same,MIC,[2],0.125 µg/mL
same,IC50 at 48 h,[12],2.64 ± 0.47 µg/mL
same,IC50,LoVo/DX,1.43 ± 0.02 µg/mL
same,∆OD F. linii,Fusarium linii KB-F1 [4],0.73
same,Lag-phase F. linii,Fusarium linii KB-F1 [4],18.5 h
same,IC50,LoVo,1.56 ± 0.04 µg/mL
same,∆OD E. coli,[14],0.12
same,Lag-phase E. coli,[14]; control 4.0 h,10.0 h
same,MIC,[5],1 µg/mL
same,∆OD A. alternata,[6],0.0
same,IC50,LS180,2.06 ± 0.18 µg/mL
same,∆OD C. albicans,"Candida albicans DSM1386 [16]; OD at 560 nm, control 1.58",0.14
same,Lag-phase C. albicans,Candida albicans DSM1386 [16]; control 3.0 h,24.5 h
OC(Cn1cncn1)(Cn1cncn1)c1ccc(F)cc1F [fluconazole],MIC80 Trichophyton rubrum (literature),Trichophyton rubrum,0.25 µg/mL
